Measured values published in paper PMC11583597, “Brain uptake pharmacokinetics of albiglutide, dulaglutide, tirzepatide, and DA5-CH in the search for new treatments of Alzheimer’s and Parkinson’s diseases” (Tissue Barriers, 2023).

Assays:
[1] = Octanol/buffer partition coefficient (lipid solubility); format: physicochemical; details: pH 7.5
Procedure: We measured the lipid solubility of the IRAs, using octanol and PB. Briefly, 1 × 10^5 counts per minute (cpm) of each ^125I/^14C-IRA were added to triplicate tubes containing equal volumes PB and octanol (Sigma-Aldrich). This solution was vigorously mixed for 1 min and centrifuged at 5500 ×g for 10 min to separate the two phases. Aliquots of 100 μl were taken in duplicate from each phase, and total radioactivity was counted in a gamma counter (Wizard2, Perkin-Elmer) or beta counter (TriCarb 3110TR, Perkin-Elmer). The ratio of the cpm in the octanol phase to the cpm in the buffer phase equates to the mean partition coefficient (Pcoeff) and indicates lipophilicity. The log value for the coefficient can be either greater than unity, indicative of a lipophilic compound, or less than unity, indicative of a hydrophilic compound.

[2] = In vivo stability of 125I/14C-IRAs in brain (acid precipitation); set-up: species or system male CD-1 mice; details: mouse, iv
Procedure: We measured the stability of the radiolabeled IRAs in brain and blood. Following anesthetization, arterial blood and whole brain were taken at two time points (10 or 60 min) after iv injection of 3 × 10^5 cpm-1×10^6 cpm of ^125I/^14C-IRA in 0.2 ml of BSA/LR. The blood samples were allowed to clot, centrifuged at 3200 ×g for 10 min, and 50 μl of the separated serum was added to 250 μl of BSA-LR. Samples were combined with equal volume 30% TCA (300 μl), mixed, and then centrifuged for 10 min at 5400 ×g. Brains were homogenized in 800 μl of BSA-LR with a bead beater for 30 sec at 4800 rpm twice. Following centrifugation at 5400 ×g for 15 min, a portion of the resulting supernatant was added to an equal volume of 30% TCA, mixed, and then centrifuged at 5400 ×g for 10 min. The radioactivity in the resulting supernatant and pellet (Sup and Pel fractions) for serum and brain was calculated separately, and the percent of radioactivity in the precipitate was calculated using the following equation:(1) %AcidPrecip=100×Pel/Sup+Pel
To correct for degradation that might have occurred during the processing, ^125I/^14C-IRA was added to non-radioactive arterial whole blood or to whole brain and processed as above. The biological samples were corrected for degradation during processing by dividing their values by those for processing control (Pcon) values and multiplying by 100. This can sometimes result in a value greater than 100%.
Immediately after counting the radioactivity, the blood and brains from the 10 min and 6 h time points were processed as described in Section 2.5 for in vivo stability. For further comparison, data from the 1 h time point were taken from the original pharmacokinetic uptake study. The ^125I-IRA brain % acid precipitation (%AP) was divided by the ^125I-IRA serum %AP at each time point to calculate the %AP B/S ratio. This value was multiplied by the B/S ratio for each ^125I-IRA to correct for degradation over the 10 min, 1 h, or 6 h time periods. Corrected AP B/S ratios were then corrected for vascular space by subtracting the ^99mTc-Alb B/S ratio within each mouse for the 10 min and 6 h time points (AP corrected delta B/S ratio). For the 1 h time point, the average ^99mTc-Alb B/S ratio (10.03 μl/g) at 10 min across all ^125I-IRAs was used for correction. The AP corrected delta B/S ratio for each ^125I-IRA was then multiplied by the %Inj/ml within each mouse to calculate the AP corrected delta %Inj/g.

[3] = Brain influx and initial volume of distribution (multiple-time regression analysis); set-up: species or system male CD-1 mice; details: mouse, in vivo, iv
Procedure: Following anesthetization, the jugular vein and right carotid artery were exposed. Mice were given a jugular vein injection of 0.2 ml BSA-LR containing 3 × 10^5 cpm-1×10^6 cpm of an ^125I/^14C-labeled IRA and 5 × 10^5 cpm of ^99mTc-Alb. Blood samples were collected from the carotid artery at various time points from 1 to 60 min after iv injection (see Figure 1). Mice were then decapitated, and their brains were removed and weighed. After clotting, the arterial blood was centrifuged at 3200 ×g for 10 min. Levels of radioactivity in serum (50 μl) and brain were measured in a gamma counter for ^125I and ^99mTc for 3 min. After ^99mTc decay, ^14C-DA5-CH samples were solubilized with Solvable (Sigma), transferred to scintillation vials containing Ecoscint (National Diagnostics) and ^14C was measured in a beta counter. Sample injection checks were taken throughout the course of the study to calculate the mean injected cpm/mouse. To determine the rate of ^125I/^14C-IRA clearance from the serum, the results were expressed as the percentage of an injected dose in each ml of serum (%Inj/ml), which was calculated by dividing the cpm in a ml of serum (cpm/ml serum) by the cpm injected into the mouse (cpm/Inj):
To calculate the blood-to-brain unidirectional influx constant (Ki), multiple-time regression analysis was used as first described by Patlak, Blasberg, and Fenstermacher.[67],[68] The brain/serum (B/S) ratios (μl/g) of the ^125I/^14C-IRA in each gram of brain were calculated from the data in Section 2.6 and plotted against their respective exposure times as previously applied by Rhea et al. 2018.[69] Exposure time differs from clock time in that exposure time corrects for clearance of the ^125I/^14C-IRA from blood and thus, better represents the amount of ^125I/^14C-IRA available for BBB transport at any given time. Delta B/S ratios were calculated by subtracting the vascular space as measured by the B/S ratio for ^99mTc-Alb from the B/S ratio for the respective ^125I/^14C-IRA. Thus, delta B/S ratios represent material that has been taken up by or has crossed the BBB. The slope of the linear portion of the relation between delta B/S ratios and exposure time defines Ki (μl/g-min) and is reported with its error term. This represents Model 1 for DA5-CH. The y-intercept of this linear portion of the relation defines Vi, (μl/g), the initial volume of distribution in brain at t = 0, which is the functional volume per unit brain mass of a soluble compound that exchanges rapidly and reversibly with plasma.[68] Vi consists of the vascular space (Vv) and any residual space after accounting for Vv and usually represents vascular binding (Vr). Since we correct each ^125I/^14C-IRA delta B/S for vascular space, our y-intercept values likely represent vascular binding. For DA5-CH, there appeared to be rapid, early transport that would indicate a Vr equal to 0. Therefore, using Vr equal to 0, we calculated an estimate of this new Ki and refer to it throughout the manuscript as Model 2.

[4] = set-up: species or system male CD-1 mice; details: mouse, in vivo, iv
Procedure: Anesthetized mice were co-injected iv with 3 × 10^5 cpm-1×10^6 cpm ^125I/^14C-IRA and 5 × 10^5 cpm of ^99mTc-Alb in 0.2 ml BSA-LR with or without 1 μg of the non-radioactive IRA. Fifteen minutes after iv injection, blood was collected from the right carotid artery, and the whole brain was removed and weighed. Samples were counted for radioactivity. Results were expressed as delta B/S ratios in units of μl/g.

[5] = human, in vivo; cited from earlier work

SMILES: CC[C@H](C)[C@H](NC(=O)[C@H](CC(C)C)NC(=O)[C@H](Cc1c[nH]c2ccccc12)NC(=O)[C@H](CCC(N)=O)NC(=O)[C@@H](NC(=O)[C@H](Cc1ccccc1)NC(=O)[C@H](C)NC(=O)[C@H](CCCCNC(=O)COCCOCCNC(=O)COCCOCCNC(=O)CC[C@H](NC(=O)CCCCCCCCCCCCCCCCCCC(=O)O)C(=O)O)NC(=O)[C@H](CCC(N)=O)NC(=O)[C@H](C)NC(=O)[C@@H](NC(=O)[C@H](CCCCN)NC(=O)[C@H](CC(=O)O)NC(=O)[C@H](CC(C)C)NC(=O)C(C)(C)NC(=O)[C@@H](NC(=O)[C@H](CO)NC(=O)[C@H](Cc1ccc(O)cc1)NC(=O)[C@H](CC(=O)O)NC(=O)[C@H](CO)NC(=O)[C@@H](NC(=O)[C@H](Cc1ccccc1)NC(=O)[C@@H](NC(=O)CNC(=O)[C@H](CCC(=O)O)NC(=O)C(C)(C)NC(=O)[C@@H](N)Cc1ccc(O)cc1)[C@@H](C)O)[C@@H](C)O)[C@@H](C)CC)[C@@H](C)CC)C(C)C)C(=O)N[C@@H](C)C(=O)NCC(=O)NCC(=O)N1CCC[C@H]1C(=O)N[C@@H](CO)C(=O)N[C@@H](CO)C(=O)NCC(=O)N[C@@H](C)C(=O)N1CCC[C@H]1C(=O)N1CCC[C@H]1C(=O)N1CCC[C@H]1C(=O)N[C@@H](CO)C(N)=O [Tirzepatide]
- Lipid Solubility Partition Coefficient [1]: 0.1318 ± 0.0126
- Log Partition Coefficient (Log P) [1]: -0.884 ± 0.0405
- Percentage of labeled IRA intact, Whole Brain, 10 min [2]: 100.7 ± 0.0%
- Percentage of labeled IRA intact, Whole Brain, 60 min [2]: 99.73 ± 0.6%
- Brain influx within 1 h of iv injection (detection) [3]: did not detect brain influx
- Whole Brain delta brain/serum ratio, Without unlabeled IRA [4]: -0.16 ± 0.13 µL/g
- half-lives in human serum [5]: 111 to 124 h
